Experimental data from paper PMC7216583 (Parasites & Vectors, 2020).
Where two headings read alike, the source gives them in different places.

Tests used:
B-Raf = tested on: B-Raf; set-up: method as in vendor brief description; conditions: ref vendor brief description; cited from earlier work
B-RafV600E = tested on: B-RafV600E; set-up: method as in vendor brief description; conditions: ref vendor brief description; cited from earlier work
c-Raf = tested on: c-Raf; set-up: method as in vendor brief description; conditions: ref vendor brief description; cited from earlier work
[1] = tested on: Toxoplasma gondii RH-2F tachyzoites; assay: microbe, parasite or virus in culture; conditions: 72 h
PI3K/mTOR = tested on: PI3K/mTOR; set-up: method as in S-inhibitor catalog; conditions: vendor brief description; ref S-inhibitor catalog; read-out: IC50, dual PI3K/mTOR inhibitor; cited from earlier work
cyclin A/CDK2 = tested on: cyclin A/CDK2; set-up: method as in S-inhibitor catalog; conditions: vendor brief description; ref S-inhibitor catalog; cited from earlier work
[2] = tested on: Akt phosphorylation on T308; set-up: method as in S-inhibitor catalog; conditions: vendor brief description; ref S-inhibitor catalog; cited from earlier work
[3] = tested on: Akt phosphorylation on S473; set-up: method as in S-inhibitor catalog; conditions: vendor brief description; ref S-inhibitor catalog; cited from earlier work
mTOR = tested on: mTOR; set-up: method as in S-inhibitor catalog; conditions: vendor brief description; ref S-inhibitor catalog; cited from earlier work
PI3Kα = tested on: PI3Kα; set-up: method as in S-inhibitor catalog; conditions: vendor brief description; ref S-inhibitor catalog; cited from earlier work
PI3Kβ = tested on: PI3Kβ; set-up: method as in S-inhibitor catalog; conditions: vendor brief description; ref S-inhibitor catalog; cited from earlier work
HER2 = conditions: vendor brief description; ref S-inhibitor catalog; cited from earlier work
EGFR = tested on: EGFR; set-up: method as in S-inhibitor catalog; conditions: vendor brief description; ref S-inhibitor catalog; cited from earlier work
[4] = tested on: Toxoplasma gondii RH-2F tachyzoites; conditions: preliminary screen of compound library; mean
Mps1 = tested on: Mps1; set-up: method as in S-inhibitor catalog; conditions: vendor brief description; ref S-inhibitor catalog; cited from earlier work
mGlu5 = tested on: mGlu5; set-up: method as in S-inhibitor catalog; conditions: vendor brief description; ref S-inhibitor catalog; read-out: EC50, mGlu5 allosteric modulator; cited from earlier work
in vitro = conditions: human, Host viability (%) mean
PDGFRβ = tested on: PDGFRβ; set-up: method as in S-inhibitor catalog; conditions: vendor brief description; ref S-inhibitor catalog; cited from earlier work
Flt3 = tested on: Flt3; set-up: method as in S-inhibitor catalog; conditions: vendor brief description; ref S-inhibitor catalog; cited from earlier work
c-Met = tested on: c-Met; set-up: method as in S-inhibitor catalog; conditions: vendor brief description; ref S-inhibitor catalog; cited from earlier work
Ron = tested on: Ron; set-up: method as in S-inhibitor catalog; conditions: vendor brief description; ref S-inhibitor catalog; cited from earlier work
Flt1 = tested on: Flt1; set-up: method as in S-inhibitor catalog; conditions: vendor brief description; ref S-inhibitor catalog; cited from earlier work
Mer = tested on: Mer; set-up: method as in S-inhibitor catalog; conditions: vendor brief description; ref S-inhibitor catalog; cited from earlier work
FGFR2 = tested on: FGFR2; set-up: method as in S-inhibitor catalog; conditions: vendor brief description; ref S-inhibitor catalog; cited from earlier work
FGFR3 = tested on: FGFR3; set-up: method as in S-inhibitor catalog; conditions: vendor brief description; ref S-inhibitor catalog; cited from earlier work
FGFR1 = conditions: read-out: IC50, FGFR1; vendor brief description; ref S-inhibitor catalog; cited from earlier work
CETP = tested on: CETP; set-up: method as in S-inhibitor catalog; conditions: vendor brief description; ref S-inhibitor catalog; cited from earlier work
JAK2 = tested on: JAK2; set-up: method as in S-inhibitor catalog; conditions: in HEL cells; vendor brief description; ref S-inhibitor catalog; cited from earlier work
Stat3 = tested on: Stat3; set-up: method as in S-inhibitor catalog; conditions: in HEL cells; vendor brief description; ref S-inhibitor catalog; cited from earlier work
XIAP = target: XIAP; set-up: method as in S-inhibitor catalog; conditions: vendor brief description; ref S-inhibitor catalog; cited from earlier work
cIAP1 = target: cIAP1; set-up: method as in S-inhibitor catalog; conditions: vendor brief description; ref S-inhibitor catalog; cited from earlier work
cIAP2 = target: cIAP2; set-up: method as in S-inhibitor catalog; conditions: vendor brief description; ref S-inhibitor catalog; cited from earlier work
CDK9 = tested on: CDK9; set-up: method as in S-inhibitor catalog; conditions: vendor brief description; ref S-inhibitor catalog; cited from earlier work
Cdc7 = tested on: Cdc7; set-up: method as in S-inhibitor catalog; conditions: vendor brief description; ref S-inhibitor catalog; cited from earlier work
[5] = read-out: Parasite inhibition (%) mean, preliminary screen of compound library, mean

CC(C)(C)c1nc(-c2cccc(NS(=O)(=O)c3c(F)cccc3F)c2F)c(-c2ccnc(N)n2)s1 [Dabrafenib (GSK2118436)]
IC50 (B-Raf): […] | IC50 (B-RafV600E): […] | IC50 (c-Raf): 5 nM | inhibition of growth at 5 µM [1, 5]: 0.8%

COc1ccc(-c2ccc3ncc4c(c3c2)n(-c2ccc(N3CCNCC3)c(C(F)(F)F)c2)c(=O)n4C)cn1 [NVP-BGT226]
IC50 (PI3K/mTOR): 1 nM | inhibition of growth at 5 µM [1, 5]: 6.1%

CNC(=O)c1nn(C)c2c1C(C)(C)Cc1cnc(Nc3ccc(N4CCN(C)CC4)cc3)nc1-2 [Milciclib (PHA-848125)]
IC50 (cyclin A/CDK2): 45 nM | inhibition of growth at 5 µM [1, 5]: 16.4%

COc1ccc(-c2cc3c(C)nc(N)nc3n([C@H]3CC[C@H](OCCO)CC3)c2=O)cn1 [PF-04691502]
IC50 [2]: 7.5 nM | IC50 [3]: 3.8 nM | inhibition of growth at 5 µM [1, 5]: 11.5%

CCn1nnc2c(N3CCOCC3)nc(-c3ccc(NC(=O)Nc4ccc(C(=O)N5CCN(C)CC5)cc4)cc3)nc21 [PKI-402]
IC50 (mTOR): 3 nM | IC50 (PI3Kα): 2 nM | IC50 (PI3Kβ): […] | inhibition of growth at 5 µM [1, 5]: 36.9%

CC(C)(O)CC(=O)NCCn1ccc2ncnc(Nc3ccc(Oc4cccc(C(F)(F)F)c4)c(Cl)c3)c21 [TAK-285]
IC50 (HER2): 17 nM | IC50 (EGFR): […] | inhibition of growth at 5 µM [1, 5]: -12.2%

AZ 3146
Parasite inhibition (%) mean [4]: 3.4% | IC50 (Mps1): ~35 nM

CCCCOc1ccc(C(=O)Nc2ccc(F)cc2F)cc1 [VU 0357121]
EC50 (mGlu5): 33 nM | inhibition of growth at 5 µM [1, 5]: 0.1%

CN(C[C@@H]1COCCO1)S(=O)(=O)Nc1ccc2ccc3ncc(-c4cnn(C)c4)cc3c(=O)c2c1 [MK-2461]
viability at 72 h (in vitro): 60.3% | IC50 (PDGFRβ): 22 nM | IC50 (Flt3): 22 nM | IC50 (c-Met): 2.5 nM | IC50 (Ron): 7 nM | IC50 (Flt1): 10 nM | IC50 (Mer): 24 nM | IC50 (FGFR2): 39 nM | IC50 (FGFR3): 50 nM | IC50 (FGFR1): 65 nM | inhibition of growth at 5 µM [1, 5]: 79.8%

CCOC(=O)N1c2ccc(C(F)(F)F)cc2[C@H](N(Cc2cc(C(F)(F)F)cc(C(F)(F)F)c2)C(=O)OC)C[C@H]1CC [Torcetrapib (CP-529414)]
IC50 (CETP): 37 nM | inhibition of growth at 5 µM [1, 5]: 22.1%

C[C@H](NC(=O)/C(C#N)=C/c1cccc(Br)n1)c1ccccc1 [WP1066]
IC50 (JAK2): 2300 nM | IC50 (Stat3): 2430 nM | inhibition of growth at 5 µM [1, 5]: -8.7%

CN[C@@H](C)C(=O)N[C@H]1CN(C(=O)CC(C)C)CC[C@H]2CC[C@@H](C(=O)NC(c3ccccc3)c3ccccc3)N2C1=O [AT-406]
Ki (XIAP): 66.4 nM | Ki (cIAP1): 1.9 nM | Ki (cIAP2): 5.1 nM | inhibition of growth at 5 µM [1, 5]: 33.5%

O=C1NCCc2[nH]c(-c3ccncc3)cc21 [PHA-767491]
IC50 (CDK9): […] | IC50 (Cdc7): […] | inhibition of growth at 5 µM ([1]; read-out: Parasite inhibition (%) mean): 2.1%
